Values joined by “and” are separate entries in the source; they are usually repeats but may differ in a detail not shown here. Equal entries are not always repeated.
Legend:
[1] = system: LPS (E. coli 026:B6)-induced septic shock in BALB/c mice; experiment: LPS-induced septic shock, single dose of peptide; assay type: in vivo; settings: single dose 5 mg/kg
Experimental: Mice used in sepsis or septic shock experiments: Female BALB/c mice of eight to twelve weeks of age were used for all experiments. The animals were bred in our facility under specific pathogen-free conditions according to the protocols described in the […] of European Laboratory Animal Science Associations (FELASA) Working group on Animal Health (Laboratory Animals 28:1-24, 1994).
Injection protocols: For the endotoxin model, BALB/c mice were injected i.p. with 150-300 μg LPS (E. coli 026:B6; Difco Lab., Detroit, Mich., USA). Control groups were treated with PBS i.p. only. To test the effect of peptides, they were dissolved in PBS and injected i.p. at predetermined points in time after LPS treatment.
Mice were scored for sickness severity using the following measurement scheme: • 0 No abnormalities. • 1 Percolated fur, but no detectable behavior differences compared to normal mice. • 2 Percolated fur, huddle reflex, responds to stimuli (such as tap on cage), just as active during handling as healthy mouse. • 3 Slower response to tap on cage, passive or docile when handled, but still curious when alone in a new setting. • 4 Lack of curiosity, little or no response to stimuli, quite immobile. • 5 Labored breathing, inability or slow to self-right after being rolled onto back (moribund, sacrificed). • D Dead.
A first set of septic shock experiments were set up to determine which of the peptides LQG, LQGV (SEQ ID NO:117), VLPALP (SEQ ID NO:140), VLPALPQ (SEQ ID NO:143), MTR, MTRV (SEQ ID NO:119), VVC or QVVC (SEQ ID NO:118) were capable of inhibiting lipopolysaccharide (LPS)-induced septic shock in mice by treating mice with a single dose of peptide at two hours after LPS treatment. Peptides were used at 5 mg/kg bodyweight. BALB/c mice were injected i.p. with escalating doses LPS (E. coli 026:B6; Difco Lab., Detroit, Mich. USA), predetermined to be leading to 80 to 100% mortality in 24 to 72 hours.
To test the effect of peptide early in the development of shock, mice were treated at two hours or at 24 hours after treatment with varying doses of LPS by i.p. injection with test peptide at 5 mg/kg bodyweight.

[2] = system: cell-cycle marker pCDG and auxin-responsive marker DR5::GUS; experiment: Arabidopsis thaliana seedling cell-cycle analysis (GUS markers); settings: Results from Examples 9 and 10
Summary of the method: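 Four-day-old Ws-0 seedlings carrying GUS reporters (pCDG, DR5::GUS) were exposed to peptides at 5 mg/ml in PBS pH 8 for four and eight hours. GUS staining with 2 mM X-Gluc for 16 hours; distribution in root, root-hypocotyl transition zone and cotyledons assessed by DIC microscopy after chloral hydrate clearing.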

[3] = system: spleen cell suspensions stimulated with anti-CD3 antibody; experiment: anti-CD3 induced proliferation of spleen cells from peptide-treated mice; assay type: cell-based; settings: mice treated i.p. 0.5 or 5 mg/kg for one hour; 0, 12, 24 and 48 hours culture
Experimental: FIG. 4: A test on representative oligopeptides for their effect on proliferation during rapid growth of murine monocytes induced by CD3 when avid cell division occurs. Mice (n=5) were treated i.p. PBS, Nak4 (LQGV (SEQ ID NO:117)), Nak47 (LAGV (SEQ ID NO:121)), Nak46 (AQGV (SEQ ID NO:120)) provided by Ansynth BV, The Netherlands, or Nak46* (AQGV (SEQ ID NO:120) provided by Diosynth BV, The Netherlands). Mice were treated with 0.5 mg/kg of 5 mg/kg peptide for one hour, after which, spleens were isolated and spleen cell suspensions were made. Spleen cell suspensions were pooled per group and cultured in vitro (in three-fold) in the presence of PBS or of anti-CD3 antibody and proliferation was tested at 0, 12, 24 and 48 hours after culture.
To further study anti-cell-cycle activity of various oligopeptides, an in vitro experiment in […] of mice stimulated with anti-CD3 was performed. The aim was to test representative oligopeptides for their effect on proliferation during rapid growth induced by CD3 when avid cell division occurs. Mice (n=5) were treated i.p. PBS, Nak4 (LQGV (SEO ID NO:117)), Nak47 (LAGV (SEQ ID NO:121)), Nak46 (AQGV (SEQ ID NO:120)) provided by Ansynth BV, The Netherlands, or Nak46* (AQGV (SEQ ID NO:120) provided by Diosynth BV, The Netherlands). Mice were treated with 0.5 mg/kg or 5 mg/kg peptide for one hour after which spleens were isolated and spleen cell suspensions were made. Spleen cell suspensions were pooled per group and cultured in vitro (in three-fold) in the presence of PBS or of anti-CD3 antibody and proliferation was tested at 0, 12, 24 and 48 hours after culture.

## VLPALPQ (septamer peptide)
[1]; LPS dose 7**
  mice scored D (dead), effect at t = 24 hours: 1
  mice scored D (dead), effect at t = 48 hours: 6
  mice with sickness score 5, effect at t = 24 hours: 5
[1]; LPS dose 7*
  mice scored D (dead), effect at t = 48 hours: 2
  mice with sickness score 3, effect at t = 24 hours: 3
  mice with sickness score 4, effect at t = 24 hours: 3
  mice with sickness score 4, effect at t = 48 hours: 2
  mice with sickness score 5, effect at t = 48 hours: 2
[1]; LPS dose 8
  mice scored D (dead), effect at t = 24 hours: 2
  mice scored D (dead), effect at t = 48 hours: 6
  mice with sickness score 2, effect at t = 24 hours: 1
  mice with sickness score 3, effect at t = 24 hours: 3
  mice with sickness score 3, effect at t = 48 hours: 1
  mice with sickness score 4, effect at t = 48 hours: 3
  mice with sickness score 5, effect at t = 24 hours: 3
  mice with sickness score 5, effect at t = 48 hours: 2
[1]; LPS dose 8, 5 mg/kg
  mice with sickness score 4, effect at t = 24 hours: 2 and 1
[1]; LPS dose 10
  mice scored D (dead), effect at t = 24 hours: 3
  mice scored D (dead), effect at t = 48 hours: 5
  mice with sickness score 3, effect at t = 24 hours: 1
  mice with sickness score 4, effect at t = 24 hours: 2
  mice with sickness score 5, effect at t = 48 hours: 1
[1]; LPS dose 10, 5 mg/kg
  mice with sickness score 5, effect at t = 24 hours: 4 and 2

## MTRV
[2]
  identified as useful peptide for treatment of radiation injury from cell-cycle studies in plants and in vitro proliferation studies: useful
[1]; LPS dose 7**
  mice scored D (dead), effect at t = 48 hours: 2
  mice with sickness score 1, effect at t = 48 hours: 3
  mice with sickness score 3, effect at t = 24 hours: 2
  mice with sickness score 3, effect at t = 48 hours: 1
  mice with sickness score 4, effect at t = 24 hours: 3
  mice with sickness score 5, effect at t = 24 hours: 1
[1]; LPS dose 7*
  mice with sickness score 2, effect at t = 48 hours: 4
  mice with sickness score 3, effect at t = 24 hours: 3
  mice with sickness score 4, effect at t = 24 hours: 3
  mice with sickness score 5, effect at t = 48 hours: 2
[1]; LPS dose 10
  mice with sickness score 1, effect at t = 48 hours: 2
  mice with sickness score 3, effect at t = 48 hours: 1
  mice with sickness score 5, effect at t = 48 hours: 1
[1]; LPS dose 10, 5 mg/kg
  mice with sickness score 2, effect at t = 24 hours: 2 and 1
  mice with sickness score 3, effect at t = 24 hours: 1 and 2
  mice with sickness score 4, effect at t = 24 hours: 2 and 1
  mice with sickness score 5, effect at t = 24 hours: 1 and 2

## AQGV
[2]
  identified as useful peptide for treatment of radiation injury from cell-cycle studies in plants and in vitro proliferation studies: useful
[3]
  proliferation of anti-CD3 stimulated spleen cells (in words): reduction of proliferation

## LAGV (tetramer peptide)
[2]
  identified as useful peptide for treatment of radiation injury from cell-cycle studies in plants and in vitro proliferation studies: useful
[3]
  proliferation of anti-CD3 stimulated spleen cells (in words): reduction of proliferation
